Some test systems named below: DLD-1 colon; HOP-18 NSCLC; KM20L2 colon; LXFL 529 NSCLC; M19-MEL melanoma; RXF-631 renal; SNB-78 CNS; XF 498 CNS; MDA-N.
Holding throughout (assay): NCI-60 cell line screen, 48 h

Where “and” joins values, the source holds several entries; their conditions need not be identical. Identical values can stand only once.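 Interpolation was linear, between the two tested concentrations surrounding the appropriate level; five concentrations were tested over 48 hours in 96-well plates. GI50 marks 50% less growth. TGI: total growth inhibition.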

For the molecule `CCCCCCCCC(=O)CCCCCCCCC(=O)O`, the TGI in the assay with DLD-1 colon was 40.1 µM; with HOP-18 NSCLC, 49.4 µM; in the assay with KM20L2 colon, 67.8 µM; in the assay with LXFL 529 NSCLC, 67.5 µM; with M19-MEL melanoma, over 100 µM; with RXF-631 renal, 44.1 µM. In addition, the TGI in the assay with SNB-78 CNS and in the assay with XF 498 CNS was over 100 µM each time.

`CC12Oc3ccc4ccccc4c3C1c1c(ccc3ccccc13)O2` (configuration not stated): the TGI in the assay with DLD-1 colon, in the assay on KM20L2 colon, in the assay with LXFL 529 NSCLC, with M19-MEL melanoma, in the assay with SNB-78 CNS and in the assay on XF 498 CNS was over 100 µM in each case.

For the molecule `CCC1(O)C(=O)OCc2c1cc1n(c2=O)Cc2c-1nc1ccccc1c2OC` (configuration not stated), the TGI was over 100 µM in the assay on DLD-1 colon; over 77.9 µM with HOP-18 NSCLC; over 69.6 µM with LXFL 529 NSCLC; 1.89 µM in the assay on M19-MEL melanoma; over 100 µM in the assay on SNB-78 CNS.

The molecule `Cc1c(NC(=O)CCCl)c(=O)oc2c(C)c3occc(=O)c3cc12` returned a TGI in the assay with MDA-N of over 100 µM.

Turning to `O=C1C(CN(Cc2ccccc2)Cc2ccccc2)CCCC1CN(Cc1ccccc1)Cc1ccccc1` (configuration not stated), the TGI was 10.4 µM and > 100 µM with DLD-1 colon; 11.8 µM and > 100 µM in the assay on HOP-18 NSCLC; 35.6 µM and > 100 µM in the assay with KM20L2 colon; 18.7 µM and > 100 µM with M19-MEL melanoma; over 100 µM in the assay on MDA-N; over 100 µM in the assay on RXF-631 renal. The TGI in the assay with SNB-78 CNS is over 100 µM; in the assay with XF 498 CNS, 28.4 µM. In addition, the GI50 in the assay with HOP-18 NSCLC was 5.67 µM and 48.5 µM; with KM20L2 colon, 17.6 µM and > 100 µM; in the assay on SNB-78 CNS, 28.1 µM and > 100 µM.

Consider `CCOC(=O)CC(=O)N(c1ccc(OC)cc1)C(C(=O)OC)c1ccccc1` (configuration not stated), for which, in the assay with MDA-N, the TGI is over 100 µM.

Take `Cc1ccc(NC(=O)C2C(=O)C(=O)N(c3ccc(C)cc3)C2=O)cc1` (configuration not stated): the TGI in the assay with DLD-1 colon, in the assay on HOP-18 NSCLC, in the assay with KM20L2 colon, in the assay on LXFL 529 NSCLC, in the assay on M19-MEL melanoma and in the assay on SNB-78 CNS was over 100 µM each time.

For `CCC[CH2][Sn]([CH2]CCC)([O]C(=O)c1cc(OC)c(OC)c(OC)c1)[O]C(=O)c1cc(OC)c(OC)c(OC)c1`, the GI50 is 1.21 µM with DLD-1 colon; 1.8 µM in the assay on KM20L2 colon; 0.215 µM with LXFL 529 NSCLC; 0.749 µM in the assay on M19-MEL melanoma; 0.53 µM in the assay with RXF-631 renal; 0.453 µM with SNB-78 CNS. For the same molecule, the TGI with DLD-1 colon is 2.46 µM; in the assay with KM20L2 colon, 3.3 µM; in the assay on LXFL 529 NSCLC it was 0.536 µM; in the assay with M19-MEL melanoma, 2.02 µM; in the assay on RXF-631 renal, 1.83 µM; in the assay on SNB-78 CNS, 1.58 µM.

Turning to `[Ce+3].[Cl-].[O-]/N=C(\c1ccccc1)c1ccccn1.[O-]/N=C(\c1ccccc1)c1ccccn1.[O-]/N=C(\c1ccccc1)c1ccccn1`, the GI50 was 40 µM in the assay with DLD-1 colon, over 100 µM in the assay with KM20L2 colon, 44.4 µM in the assay with LXFL 529 NSCLC and 35.8 µM with M19-MEL melanoma. The TGI with DLD-1 colon, in the assay on KM20L2 colon, in the assay on LXFL 529 NSCLC and in the assay on M19-MEL melanoma was over 100 µM throughout.

Turning to `Cn1c(O)c(C=N)c(=O)n(C)c1=O`, the TGI in the assay on DLD-1 colon, with HOP-18 NSCLC, with KM20L2 colon, in the assay with M19-MEL melanoma, in the assay with SNB-78 CNS and in the assay with XF 498 CNS was over 100 µM throughout.

Regarding `Oc1c(Cl)cc(C(c2cc(Cl)c(O)c(Cl)c2)C(c2cc(Cl)c(O)c(Cl)c2)c2cc(Cl)c(O)c(Cl)c2)cc1Cl`, in the assay on MDA-N, the GI50 is 4.07 µM and the TGI came out at 19 µM.

With `O=[n+]1cnn([O-])c2ccccc21`, in the assay on MDA-N, the TGI was 44.2 µM.

For `Nc1ccn(C2OC(CO[P+](=O)OC3C(CO[P+](=O)OC4C(CO[P+](=O)OC5C(CO[P+](=O)OC6C(CO[P+](=O)OC7C(CO[P+](=O)OC8C(CO[P+](=O)OC9C(CO[P+](=O)OC%10C(CO[P+](=O)OC%11C(CO)OC(n%12ccc(N)nc%12=O)C%11(F)F)OC(n%11ccc(N)nc%11=O)C%10(F)F)OC(n%10ccc(N)nc%10=O)C9(F)F)OC(n9ccc(N)nc9=O)C8(F)F)OC(n8ccc(N)nc8=O)C7(F)F)OC(n7ccc(N)nc7=O)C6(F)F)OC(n6ccc(N)nc6=O)C5(F)F)OC(n5ccc(N)nc5=O)C4(F)F)OC(n4ccc(N)nc4=O)C3(F)F)C(O)C2(F)F)c(=O)n1` (configuration not stated), in the assay with MDA-N, the TGI was over 100 µM.

`CCN(CC)CC(O)CNc1ccc(NCC(O)CCl)c2c1C(=O)c1ccccc1C2=O` (configuration not stated): the TGI in the assay on DLD-1 colon stood at 38.9 µM; in the assay with KM20L2 colon, 18.5 µM; with LXFL 529 NSCLC, 15.8 µM; in the assay on M19-MEL melanoma, 22.1 µM; in the assay on MDA-N, 19.7 µM; with SNB-78 CNS it was 22.8 µM. This molecule also yielded a TGI in the assay on XF 498 CNS of 26.9 µM.

For `CC1C(=O)CCC1C(Sc1ccccc1)(Sc1ccccc1)Sc1ccccc1` (configuration not stated), the TGI in the assay with DLD-1 colon was over 100 µM; in the assay with LXFL 529 NSCLC, 77.9 µM; in the assay with M19-MEL melanoma, over 100 µM; in the assay on RXF-631 renal, over 100 µM; in the assay on SNB-78 CNS it was over 100 µM; with XF 498 CNS it was 80.9 µM.

Regarding `Cc1nc2ccc(N=Nc3c(O)ccc4ccccc34)cc2[nH]1`, the TGI is 66.2 µM in the assay on DLD-1 colon; over 100 µM in the assay with KM20L2 colon; 37.3 µM in the assay on LXFL 529 NSCLC; 42.7 µM in the assay with M19-MEL melanoma; 36.7 µM with MDA-N; over 100 µM in the assay on SNB-78 CNS.

For the molecule `O=[N+]([O-])c1ccccc1S(=O)(=O)c1ccccc1[N+](=O)[O-]`, the TGI in the assay with DLD-1 colon, in the assay on HOP-18 NSCLC, with KM20L2 colon, with LXFL 529 NSCLC, with M19-MEL melanoma and in the assay on MDA-N was over 100 µM each time. Further, the TGI in the assay on SNB-78 CNS is over 100 µM; with XF 498 CNS, 72.4 µM.

For the molecule `COC(=O)C(=C\Sc1ccccc1)/C=C/C(=O)OC(C)(C)C`, the TGI was 7.59 µM with DLD-1 colon; 30 µM in the assay on HOP-18 NSCLC; 31.1 µM in the assay with KM20L2 colon; 13.5 µM with LXFL 529 NSCLC; 23.9 µM in the assay on M19-MEL melanoma; 31.9 µM with SNB-78 CNS. Moreover, the TGI with XF 498 CNS was 28.3 µM.

The values above are taken from PubChem BioAssay (NCI).
